Laboratory results taken from patent US11628160B2, “Compositions and methods for treating brain injury” (Azevan Pharmaceuticals, Inc., priority 2017, dated 2023).

Tests used:
Format in all cases: in vivo, rat
Male Sprague Dawley rats [1] = assay: Treatment in the momentum exchange impact model; conditions: concussed rats, two head impacts; IP 10 mg/kg twice daily 5 days; two weeks post impact; vs sham Control
Experimental: EXAMPLE. Momentum exchange impact model. This model features several advantageous translational differences over some head injury models, such as the controlled cortical impact injury model. For example, the head, neck and body can move with impact, and the velocity of head movement and energy transfer can be calculated and scaled mild to provide range from moderate to severe concussions. Studies are conducted with moderate impacts with neuroradiological evidence of contusions. Male rats are concussed twice with one day. Additional details are described in Viano et al., “Evaluation of three animal models for concussion and serious brain injury” Ann Biomed Eng. 40(1):213-26 (2012). […] Sham non-concussed test animals are given vehicle or test compound. Test animals are treated twice daily for 5 consecutive days. At two weeks post concussion cognitive behaviors are assessed, using for example, the Barnes maze and/or novel recognition models. In addition, motor behaviors are assessed, using for example, beam walk and/or rotarod tests. […]
The pneumatic pressure drive is replicated, 50 g compactor, as described by Viano and reproduced consistently, the 7.4, 9.3, and 11.2 m/s impact velocities described for mild, medium, and severe head injury, respectively. The data described herein are obtained from a 9.12 meters/sec impact velocity, as determined using high-speed video recordings. […]

Male Sprague Dawley rats [2] = assay: Novel Object Recognition test (momentum exchange impact model)
Experimental: (§1) EXAMPLE. Momentum exchange impact model. This model features several advantageous translational differences over some head injury models, such as the controlled cortical impact injury model. For example, the head, neck and body can move with impact, and the velocity of head movement and energy transfer can be calculated and scaled mild to provide range from moderate to severe concussions. Studies are conducted with moderate impacts with neuroradiological evidence of contusions. Male rats are concussed twice with one day. Additional details are described in Viano et al., “Evaluation of three animal models for concussion and serious brain injury” Ann Biomed Eng. 40(1):213-26 (2012). […] Sham non-concussed test animals are given vehicle or test compound. Test animals are treated twice daily for 5 consecutive days. At two weeks post concussion cognitive behaviors are assessed, using for example, the Barnes maze and/or novel recognition models. In addition, motor behaviors are assessed, using for example, beam walk and/or rotarod tests. In each case, neuroradiological MRI is also performed.
(§2) Beginning on postnatal (P)70, animals are divided into 3 groups (n=6-7/group; Sham Control Group (Control, CG), Injury Group (IG), and Treatment Group (TG) and begin their head impact, and drug regimens. All groups are anaesthetized with 4% isoflurane in oxygen, and Injury group and Treatment group receive the first of two total head impacts) using a custom setup from Animal Imaging Research (AIR; Holden, Mass.) on P70. The day after the first impact (P71), test compound, such as AVN576, is administered to the Treatment group and the Sham Control group. In addition, a vehicle only control group (VCG) is administered saline. All administrations re administered to the Control and Treatment groups twice per day at 0700 and 1400 (IP @10 mg/kg). The drug regimen is continued over the following 4 days (5 days total). The second head impact is delivered two days following the first on P72. Two weeks post impact, animals are imaged and tested for cognitive and motor behaviors. In all evaluations made, there was not a significant difference between the sham control group (CG) receiving test compounds and vehicle-only sham control group (VCG) receiving vehicle.
EXAMPLE. Novel Object Recognition test results. This test assesses episodic learning and memory-related stimulus recognition.

Male Sprague Dawley rats [3] = assay: Barnes Maze test (momentum exchange impact model)
Experimental: as §1, §2
EXAMPLE. Barnes Maze test results. This test assesses spatial learning and memory.

Male Sprague Dawley rats [4] = assay: Edema and ventricular volumes (T2 relaxometry MRI); conditions: Treatment group; no significant difference to Control group
Experimental: EXAMPLE. T2 Relaxometry measurement of edema. MRI was conducted 24-28 days after the injury to characterize edematous volume in the lateral ventricles using T2 relaxometry. The time of imaging was based on the rat model used for TBI assessment by Charles River. Images are acquired using a multi-slice multi-echo (MSME) pulse sequence. The echo time (TE) is illustratively 11 ms, and 16 echoes are acquired during imaging with a recovery time (TR) of 2500 ms. Images are acquired with a field of view [FOV] 3 cm^2, data matrix=256×256×20 slices, thickness=1 mm. Values for […] relaxation time (T2) are obtained from all the slices using ParaVison 5.1 software. T2 is used to characterize the edematous volume in the lateral ventricle. The T2 values are used for segmentation and quantification of the ventricle volume. The T2 values are computed using the equation; y=A+Cexp (−t/T2) (S.D. weighted) obtained from the Paravision 5.1 software, where, A=absolute bias, C=signal intensity, t=echo time and T2=spin-spin relaxation time. The ventricle is identified as a hyperintensity on the T2 map over three 1 mm sections. The volume is calculated using a snake region growth algorithm in itk-SNAP (www.itksnap.org). The threshold is illustratively set at 6300 to 9000 as absolute pixel intensity. A point is seeded within the ventricle and the algorithm run until segmentation is complete. […]

C[C@@H](NC(=O)[C@@H](CC(=O)N1CCC(N2CCCCC2)CC1)N1C(=O)[C@@H](N2C(=O)OC[C@@H]2c2ccccc2)[C@H]1/C=C/c1cccc(I)c1)c1ccccc1 [Example 266]
deficits in learning and memory (Male Sprague Dawley rats [1]): no deficits in learning and memory | percentage of time with the novel object compared to the Injury group (Male Sprague Dawley rats [2]; Treatment group P=0.003): significantly longer percentage of time | total time with the novel object compared to the Injury group (Male Sprague Dawley rats [2]; Treatment group P=0.02): significantly more total time | exploration index (exploration instances) compared to the Injury group (Male Sprague Dawley rats [2]; Treatment group P=0.06): only a trend towards significance | time investigating the novel object (recognition index) compared to chance (Male Sprague Dawley rats [2]; Treatment group, t(5)=2.61, p<0.05, IP 10 mg/kg twice daily 5 days): significantly greater than a chance amount of time | distance traveled before finding the goal box: Injury group relative to Treatment group (Male Sprague Dawley rats [3]; P=0.03): significantly greater distance | error duration (time exploring wrong holes): Injury group relative to Treatment group (Male Sprague Dawley rats [3]; P=0.03): significantly more time exploring the wrong holes | deficits in learning and memory, Barnes maze (Male Sprague Dawley rats [3]; Treatment group, did not differ from control group): did not show any deficits in learning and memory | latency to find the goal box: Injury group relative to Treatment group (Male Sprague Dawley rats [3]; collapsed across acquisition days, P=0.04): longer latencies to find the goal box | volume of lateral ventricles at the level of impact (Male Sprague Dawley rats [4]): ventricular volume returns to normal levels
